Test results published in ChEMBL document CHEMBL2375237, “Optimization of allosteric MEK inhibitors. Part 1: Venturing into underexplored SAR territories” (Bioorg Med Chem Lett, 2013).
Active and inactive are the calls of the source. No cut-off for these calls is given here.

What was measured:
HCT-116 [1] = test: Antiproliferative activity against human HCT116 cells expressing KRAS G13D mutant; type: functional, cell-based
[2] = biological target: Dual specificity mitogen-activated protein kinase kinase 1 (Homo sapiens, UniProt Q02750); test: Inhibition of MEK1 (unknown origin) after 2 hrs by fluorescence assay
Chain of Dual specificity mitogen-activated protein kinase kinase 1 (Q02750 whole entry): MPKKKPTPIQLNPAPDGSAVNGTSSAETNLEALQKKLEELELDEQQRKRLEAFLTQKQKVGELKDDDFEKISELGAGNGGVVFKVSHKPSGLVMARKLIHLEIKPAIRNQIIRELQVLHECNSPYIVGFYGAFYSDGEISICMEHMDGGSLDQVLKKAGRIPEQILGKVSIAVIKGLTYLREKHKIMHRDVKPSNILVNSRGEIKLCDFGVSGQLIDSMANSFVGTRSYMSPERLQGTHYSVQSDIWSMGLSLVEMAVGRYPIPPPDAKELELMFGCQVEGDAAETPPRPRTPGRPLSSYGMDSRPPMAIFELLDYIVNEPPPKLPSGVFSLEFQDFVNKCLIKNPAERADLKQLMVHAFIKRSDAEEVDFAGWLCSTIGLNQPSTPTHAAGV

A-375 = test: cells; conditions: Homo sapiens, A-375, 72 h
Description: Antiproliferative activity against human A375 cells expressing BRAF V600E mutant after 72 hrs by Cell titer-glo assay

[3] = Oral bioavailability in rat at 1 mg/kg; type: ADME, organism-based; conditions: in vivo
[4] = Terminal half life in rat at 0.5 mg/kg, iv and 1 mg/kg, po; type: ADME, organism-based; conditions: in vivo, read-out: beta t1/2 (converted)
[5] = Volume of distribution at steady state in rat at 0.5 mg/kg, iv and 1 mg/kg, po; type: ADME, organism-based; conditions: in vivo, read-out: Vdss
[6] = Blood clearance in rat at 0.5 mg/kg, iv and 1 mg/kg, po; type: ADME, organism-based; conditions: whole blood
A549 [7] = conditions: Homo sapiens
Description: Antitumor activity against human A549 cells xenografted in nude mouse assessed as tumor growth inhibition at 3 mg/kg, po qd

[8] = Terminal half life in dog; type: ADME, organism-based, Canis lupus familiaris; conditions: in vivo, read-out: beta t1/2 (converted)
[9] = Terminal half life in mouse; type: ADME, organism-based; conditions: in vivo, read-out: beta t1/2 (converted)
MIA PaCa-2 = test: Antiproliferative activity against human MIAPaCa2 cells; type: functional, cell-based
LoVo = test: Antiproliferative activity against human LoVo cells; type: functional, cell-based
A549 [10] = test: Antiproliferative activity against human A549 cells; type: functional, cell-based
HCT-116 [11] = test: Ratio of AZD6244 IC50 to compound IC50 for human HCT116 cells expressing KRAS G13D mutant; type: functional
[12] = Ratio of AUC in mouse brain to AUC in mouse plasma at 5 mg/kg, iv up to 3 hrs; type: ADME, organism-based; parameters: dose 5 mg/kg, route intravenous; conditions: read-out: Ratio AUC
[13] = Terminal half life in rat at 1 mg/kg, iv and 1 mg/kg, po; type: ADME, organism-based; conditions: in vivo, read-out: beta t1/2 (converted)
[14] = Volume of distribution at steady state in rat at 1 mg/kg, iv and 1 mg/kg, po; type: ADME, organism-based; conditions: in vivo, read-out: Vdss
[15] = Blood clearance in rat at 1 mg/kg, iv and 1 mg/kg, po; type: ADME, organism-based; conditions: whole blood
A549 [16] = conditions: Homo sapiens; remark: listed apart in the source
Description: Antitumor activity against human A549 cells xenografted in nude mouse assessed as tumor growth inhibition at 1 mg/kg, po administered every other day

A549 [17] = conditions: Homo sapiens; remark: listed apart in the source
Description: Antitumor activity against human A549 cells xenografted in nude mouse assessed as tumor growth inhibition at 1 mg/kg, po qd

Caco-2 = test: Efflux ratio of permeability in human Caco2 cells relative to control; type: ADME, cell-based
[18] = Oral bioavailability in rat at 0.6 mg/kg; type: ADME, organism-based; conditions: in vivo
[19] = Terminal half life in rat at 0.3 mg/kg, iv and 0.6 mg/kg, po; type: ADME, organism-based; conditions: in vivo, read-out: beta t1/2 (converted)
[20] = Volume of distribution at steady state in rat at 0.3 mg/kg, iv and 0.6 mg/kg, po; type: ADME, organism-based; conditions: in vivo, read-out: Vdss
[21] = Blood clearance in rat at 0.3 mg/kg, iv and 0.6 mg/kg, po; type: ADME, organism-based; conditions: whole blood
[22] = Oral bioavailability in rat at 5 mg/kg; type: ADME, organism-based; conditions: in vivo
[23] = Terminal half life in rat at 0.5 mg/kg, iv and 5 mg/kg, po; type: ADME, organism-based; conditions: in vivo, read-out: beta t1/2 (converted)
[24] = Volume of distribution at steady state in rat at 0.5 mg/kg, iv and 5 mg/kg, po; type: ADME, organism-based; conditions: in vivo, read-out: Vdss
[25] = Blood clearance in rat at 0.5 mg/kg, iv and 5 mg/kg, po; type: ADME, organism-based; conditions: whole blood
[26] = Drug metabolism in hepatocytes (unknown origin) assessed as demethylation of the sulfamide moiety; type: ADME, cell-based, Hepatocyte
[27] = Drug metabolism in liver microsomes (unknown origin) assessed as demethylation of the sulfamide moiety; type: ADME, Microsome
[28] = Oral bioavailability in rat; type: ADME, organism-based; conditions: in vivo
[29] = Terminal half life in rat at 1 mg/kg, iv; type: ADME, organism-based; parameters: dose 1 mg/kg, route intravenous; conditions: in vivo, read-out: beta t1/2 (converted)
[30] = Blood clearance in rat at 1 mg/kg, iv; type: ADME, organism-based; parameters: dose 1 mg/kg, route intravenous; conditions: whole blood

Structure (SMILES) | IC50 (HCT-116 [1]) | IC50 [2] | IC50 (A-375) | other results
O=C(NOC[C@H](O)CO)c1ccc(F)c(F)c1Nc1ccc(I)cc1F [MIRDAMETINIB] |  |  |  | bioavailability [3]: 104%; half-life [4]: 324 min; Vd [5]: 1.7 L/kg; clearance [6]: 8.33 mL/min/kg; TGI (A549 [7]): Active
NC(=O)c1c(Nc2ccc(I)cc2F)cc(F)cc1Oc1ccccc1 |  | 99 nM | 408 nM | 
COc1cc(F)cc(Nc2ccc(I)cc2F)c1C(N)=O |  | 74 nM | 354 nM | 
CCS(=O)(=O)N1CCC[C@H]1COc1cc(F)cc(Nc2ccc(I)cc2F)c1C(N)=O |  |  | 323 nM | 
CN1CCC[C@H]1COc1cc(F)cc(Nc2ccc(I)cc2F)c1C(N)=O |  |  | 973 nM | 
NC(=O)c1c(Nc2ccc(I)cc2F)cc(F)cc1OC[C@@H]1CCCN1S(N)(=O)=O | 3040 nM | 73 nM | 172 nM | 
CC(C)C(=O)Nc1cccc(Oc2cc(F)cc(Nc3ccc(I)cc3F)c2C(N)=O)c1 | 8810 nM | 48 nM | 192 nM | 
NC(=O)c1c(Nc2ccc(I)cc2F)cc(F)cc1OCC[C@H](O)CO |  |  | 240 nM | 
CN(C)S(=O)(=O)N1CCC[C@H]1COc1cc(F)cc(Nc2ccc(I)cc2F)c1C(N)=O |  | 1000 nM | 1120 nM | 
NC(=O)c1c(Nc2ccc(I)cc2F)cc(F)cc1Oc1ccc2cn[nH]c2c1 |  | 54 nM | 221 nM | 
CC(=O)Nc1ccc(Oc2cc(F)cc(Nc3ccc(I)cc3F)c2C(N)=O)cc1 |  | 539 nM | 808 nM | 
CC(O)(CO)CCOc1cc(F)cc(Nc2ccc(I)cc2F)c1C(N)=O (stereo unspecified) |  |  | 240 nM | 
NC(=O)c1c(Nc2ccc(I)cc2F)cc(F)cc1OC[C@H](O)CCO |  | 63 nM | 350 nM | 

The next lines start with results.

IC50 (HCT-116 [1]) | IC50 [2] | IC50 (A-375) | Structure (SMILES) | other results
2450 nM | 43 nM | 40 nM | CC(C)(O)C(O)CCOc1cc(F)cc(Nc2ccc(I)cc2F)c1C(N)=O (stereo unspecified) | 
180 nM | 14 nM | 4 nM | NC(=O)c1c(Nc2ccc(I)cc2F)cc(F)cc1Oc1cccc(NS(N)(=O)=O)c1 | half-life [8]: 4.58 days; half-life [9]: 2040 min; IC50 (MIA PaCa-2): 23 nM; IC50 (LoVo): 175 nM; IC50 (A549 [10]): 132 nM; Ratio IC50 (HCT-116 [11]): >=10; Kp at 3 h [12]: < 0.02; bioavailability [3]: 62%; half-life [13]: 1920 min; Vd [14]: 2 L/kg; clearance [15]: 0.5 mL/min/kg; TGI (A549 [16]): Active; TGI (A549 [17]): Active
3030 nM | 26 nM | 124 nM | NC(=O)c1c(Nc2ccc(I)cc2F)cc(F)cc1OC[C@@H]1CCCN1 | 
1250 nM | 16 nM | 98 nM | NC(=O)c1c(Nc2ccc(I)cc2F)cc(F)cc1OCC[C@@H](O)Cn1ccnc1 | fold change (FC) (Caco-2): 10; Kp at 3 h [12]: 0.04; bioavailability [18]: 20%; half-life [19]: 504 min; Vd [20]: 10.3 L/kg; clearance [21]: 9.67 mL/min/kg
3100 nM |  | 31 nM | Cn1cnc2c(F)c(Nc3ccc(Br)cc3Cl)c(C(=O)NOCCO)cc21 [SELUMETINIB] | IC50 (MIA PaCa-2): 142 nM; IC50 (LoVo): 2830 nM; IC50 (A549 [10]): 1750 nM; Kp at 3 h [12]: < 0.02; bioavailability [22]: 14%; half-life [23]: 228 min; Vd [24]: 0.2 L/kg; clearance [25]: 1 mL/min/kg
3490 nM | 32 nM | 37 nM | NC(=O)c1c(Nc2ccc(I)cc2F)cc(F)cc1Oc1cccc(CS(N)(=O)=O)c1 | 
3400 nM |  | 148 nM | NC(=O)c1c(Nc2ccc(I)cc2F)cc(F)cc1OCC[C@@H](O)CO | Kp at 3 h [12]: 0.73; bioavailability [3]: 70%; half-life [4]: 144 min; Vd [5]: 4.4 L/kg; clearance [6]: 24.8 mL/min/kg
4180 nM | 76 nM | 141 nM | NC(=O)c1c(Nc2ccc(I)cc2F)cc(F)cc1Oc1cccnc1 | 
103 nM |  | 16 nM | CNS(=O)(=O)Nc1cccc(Oc2cc(F)cc(Nc3ccc(I)cc3F)c2C(N)=O)c1 | 
2290 nM |  | 50 nM | CC(=O)Nc1cccc(Oc2cc(F)cc(Nc3ccc(I)cc3F)c2C(N)=O)c1 | 
412 nM | 21 nM | 28 nM | NC(=O)c1c(Nc2ccc(I)cc2F)cc(F)cc1Oc1cccc(NS(=O)(=O)N2CCCC2)c1 | 
155 nM | 21 nM | 18 nM | CN(C)S(=O)(=O)Nc1cccc(Oc2cc(F)cc(Nc3ccc(I)cc3F)c2C(N)=O)c1 | Drug metabolism [26]: Active; Drug metabolism [27]: Active; bioavailability [28]: 55%; half-life [29]: 132 min; clearance [30]: 35 mL/min/kg
2070 nM | 13 nM | 151 nM | NC(=O)c1c(Nc2ccc(I)cc2F)cc(F)cc1OCC[C@@H](O)Cn1cccn1 | 
287 nM | 15 nM | < 30 nM | CCS(=O)(=O)Nc1cccc(Oc2cc(F)cc(Nc3ccc(I)cc3F)c2C(N)=O)c1 | 
459 nM | 18 nM | 17 nM | CC(C)S(=O)(=O)Nc1cccc(Oc2cc(F)cc(Nc3ccc(I)cc3F)c2C(N)=O)c1 | 
3800 nM | 21 nM | 23 nM | CS(=O)(=O)Nc1cccc(Oc2cc(F)cc(Nc3ccc(I)cc3F)c2C(N)=O)c1 | 
4510 nM | 36 nM | 35 nM | NC(=O)c1c(Nc2ccc(I)cc2F)cc(F)cc1Oc1ccc2oc(=O)[nH]c2c1 | 
